Experimental data from ChEMBL document CHEMBL1201862, “PubChem BioAssay data set” (2004).
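Each compound was tested at five concentrations against cells in 96-well plates for 48 hours. GI50 is the concentration that inhibits growth by half.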 Activity calls are given as the source filed them. Rule as the data show it: active = GI50 up to about 1.1 µM and inactive = higher.

Assays:
Assay in all cases: inhibition of tumour cell growth, NCI panel, 48 h
[1] = tested on: LOX IMVI
[2] = tested on: SR
[3] = tested on: PC-3
[4] = tested on: HCC 2998
[5] = tested on: MDA-MB-435
[6] = tested on: K562
[7] = tested on: UO-31
[8] = tested on: MDA-MB-231
[9] = tested on: NCI-H460
[10] = tested on: SF-295
[11] = tested on: Hs-578T
[12] = tested on: SK-MEL-5
[13] = tested on: SF-268
[14] = tested on: SN12C
[15] = tested on: HCT-116
[16] = tested on: OVCAR-3
[17] = tested on: 786-0
[18] = tested on: M14
[19] = tested on: T47D
[20] = tested on: EKVX
[21] = tested on: MCF7
[22] = tested on: HL-60
[23] = tested on: NCI-H23
[24] = tested on: KM12
[25] = tested on: A498
[26] = tested on: U-251
[27] = tested on: UACC-257
[28] = tested on: CCRF-CEM
[29] = tested on: Malme-3M
[30] = tested on: SF-539
[31] = tested on: HOP-92
[32] = tested on: HCT-15
[33] = tested on: OVCAR-5
[34] = tested on: A549
[35] = tested on: SK-OV-3
[36] = tested on: SNB-75
[37] = tested on: SNB-19
[38] = tested on: ACHN
[39] = tested on: UACC-62
[40] = tested on: DU-145
[41] = tested on: OVCAR-4
[42] = tested on: NCI-H522
[43] = tested on: SK-MEL-28
[44] = tested on: RPMI-8226
[45] = tested on: MOLT-4
[46] = tested on: SW-620
[47] = tested on: SK-MEL-2
[48] = tested on: TK-10
[49] = tested on: COLO 205
[50] = tested on: CAKI-1
[51] = tested on: RXF 393
[52] = tested on: HOP-62
[53] = tested on: IGROV-1
[54] = tested on: MDA-N
[55] = tested on: OVCAR-8
[56] = tested on: NCI-H226
[57] = tested on: HT-29

Measured: GI50

NS(=O)(=O)c1ccc(NC(=S)NC=C2C(=O)c3ccccc3C2=O)cc1
38.9 µM: [32]
inactive: [1] > 100 µM | [2] 42 µM | [3] > 100 µM | [4] 38.3 µM | [5] 91.4 µM | [6] 35.8 µM | [7] 22.6 µM | [8] 23.7 µM | [9] > 100 µM | [10] > 100 µM | [11] 14.4 µM | [12] 47 µM | [13] 36.5 µM | [14] > 100 µM | [15] > 100 µM | [16] 55.8 µM | [17] > 100 µM | [18] > 100 µM | [19] 30.8 µM | [20] > 100 µM | [21] 17.9 µM | [22] > 100 µM | [23] > 100 µM | [24] > 100 µM | [25] 71.9 µM | [26] 76.2 µM | [27] > 100 µM | [28] > 100 µM | [29] > 100 µM | [30] 35.5 µM | [31] 23.7 µM | [33] > 100 µM | [34] > 100 µM | [35] > 100 µM | [36] 19.4 µM | [37] > 100 µM | [38] > 100 µM | [39] 56.2 µM | [40] 94 µM | [41] 49 µM | [42] 65.9 µM | [43] > 100 µM | [44] 36.4 µM | [45] 61.9 µM | [46] > 100 µM | [47] 62.1 µM | [48] 46.6 µM | [49] > 100 µM | [50] 86.5 µM | [51] 43.6 µM | [52] > 100 µM | [53] 23.3 µM | [54] > 100 µM

O=C(CC(C(=O)c1ccsc1)c1cccs1)c1ccccc1 (configuration not stated)
inactive: [1] 78 µM | [2] 76.9 µM | [4] > 100 µM | [5] 57.3 µM | [6] > 100 µM | [7] 19.2 µM | [8] 56.8 µM | [9] 36.6 µM | [10] 98.9 µM | [11] > 100 µM | [12] 70.5 µM | [13] > 100 µM | [14] > 100 µM | [15] 71.4 µM | [16] > 100 µM | [17] > 100 µM | [18] 69.2 µM | [19] 9.57 µM | [20] > 100 µM | [21] 45.1 µM | [22] 71.4 µM | [23] 29.7 µM | [24] 59 µM | [25] 29.9 µM | [26] 98.9 µM | [27] > 100 µM | [55] 89.1 µM | [28] 80.4 µM | [30] > 100 µM | [31] > 100 µM | [33] > 100 µM | [56] > 100 µM | [34] 15.6 µM | [57] 82.8 µM | [35] > 100 µM | [36] 23.7 µM | [38] > 100 µM | [39] 49.2 µM | [40] 54.6 µM | [41] 18.3 µM | [42] 70.1 µM | [43] > 100 µM | [44] > 100 µM | [45] 36.2 µM | [46] > 100 µM | [48] > 100 µM | [49] > 100 µM | [50] > 100 µM | [51] 14 µM | [52] > 100 µM | [53] > 100 µM | [54] > 100 µM
56.4 µM: [32]
